Legend:
[1] = test system: Pyricularia orzae; assay: whole plant or invertebrate; assay type: in vivo, Pyricularia orzae (rice plant, Chukyo Asahi); details: in Oryza sativa, 120 h, read-out: Protective value
[2] = test system: Rhizoctonia solani; assay: whole plant or invertebrate; assay type: in vivo, Rhizoctonia solani (rice plant, Chukyo Asahi); details: in Oryza sativa, 120 h, read-out: Preventive value
[3] = test system: Callosobruchus chinensis; assay: Test 7: mortality of adults of Callosobruchus chinensis on film in Petri-dish; assay type: in vivo; details: 400 μg per Petri-dish of 9 cm, 25° C., 24 hours, read-out: Percent mortality
Description: Each active ingredient was dissolved in acetone to prepare each solution having the specific concentration. 1 Ml. of the solution (400 μg. of each active ingredient) was uniformly adhered on the inner bottom surface of Petri-dish having a diameter of 9 cm to form a film. In the dish, 15 of adults of Callosobruchus chinensis were charged and the dish was covered with a cap and kept in a constant temperature chamber at 25° C. for 24 hours. Each percent mortality was calculated as that of Test 6.

[4] = test system: Plutella xylostella; assay: Test 11: mortality of larvae of Plutella xylostella on treated cabbage leaf; assay type: in vivo; details: foliar, 192 h, leaf dipped, emulsifiable concentrate Composition No. 3, eight days, read-out: Percent mortality
Excerpt: Each emulsifiable concentrate of each active ingredient as Composition No. 3 was dispersed in water at a concentration of 800 ppm. Each leaf of cabbage was dipped into each emulsion for about 10 seconds and taken up and dried in air.
A wet filter paper was put in each Petri dish (diameter of 9 cm), and each treated leaf was put on the filter paper. Larvae of Plutella xylostella at 2nd to 3rd instar were charged and the dish was covered with a cap and kept in a constant temperature chamber with lighting at 28° C. Eight days after the charge, mortality was measured and each percent mortality was calculated.

[5] = test system: Sphaerotheca fuliginea; assay: whole plant or invertebrate; assay type: in vivo, Sphaerotheca fuliginea (cucumber plant, Suyo); details: Podosphaera fuliginea, in Cucumis sativus, 240 h, read-out: Protective value
[6] = test system: Botrytis cinerea; assay: Test 9: protective value on cucumber inoculated with Botrytis cinerea; assay type: in vivo, Botrytis cinerea (cucumber plant, Suyo); details: 72 h; for pest or weed control at 250 ppm: 10 ml sprayed, lesion length three days after inoculation
Description: In each unglazed pot having a diameter of 9 cm, cucumber plant (Suyo) was cultured. At one leaf stage, 10 ml. of each solution of each active ingredient having a concentration of 250 ppm was sprayed by a spray gun. After maintaining the pot in a green-house at 24° to 25° C. for one day, a disc (punched agar disc) obtained by culturing Botrytis cinerea on a potato-glucose-agar medium (PDA medium) was put on the leaf of cucumber to inoculate them. Three days after the inoculation, lengths of lesions were measured and each protective value was calculated as Test 2.
In accordance with the test, except the concentration of the active ingredient was decreased, the comparative tests of Compound No. 7 and Reference compound were carried out.

[7] = test system: Tetranychus telarius (L); assay: Test 6: mortality of larvae and adults of Tetranychus telarius on kidney bean leaf; assay type: in vivo; details: foliar, 72 h, leaf dipped, wettable powder of Composition No. 5, three days after treatment, read-out: Percent mortality
Description: Young seedling of kidney bean treated to cut off leaves except one primordial leaf was transplanted in a cup and about 30 of larvae and adults of Tetranychus telarius (L) were inoculated on the primordial leaf. This was dipped for 10 seconds in each solution obtained by diluting each wettable powder of Composition No. 5 containing each active ingredient with water at the concentration of 800 ppm and was dried in air and was kept in a constant temperature chamber with lighting at 28° C. Three days after the treatment, mortality was measured and each percent mortality was calculated as follows. [formula]

[8] = test system: Collectotrichum lagenarium; assay: Test 3: protective value on cucumber inoculated with Collectotrichum lagenarium; assay type: in vivo, Collectotrichum lagenarium (cucumber plant, Suyo); details: 500 ppm, 10 ml sprayed; lesions six days after inoculation
Description: In each unglazed pot having a diameter of 9 cm, cucumber plant (Suyo) was cultured. At one leaf stage, 10 ml. of each solution of each active ingredient having a concentration of 500 ppm was sprayed by a spray gun. After maintaining the pot in a green-house at 24° to 25° C. for one day, each spore suspension of Collectotrichum lagenarium was sprayed. Six days after the inoculation, number of lesions on the first leaf of seedling was observed. The protective value was calculated as Test 1.

SMILES	pest or weed control at 100 ppm [1] [%]	pest or weed control at 100 ppm [2] [%]	mortality at 400 µg/dish [3] [%]	mortality at 800 ppm [4] [%]	mortality at 800 ppm [7] [%]	further results
O=[N+]([O-])c1cc(C(F)(F)F)cc([N+](=O)[O-])c1Nc1ncc(C(F)(F)F)cc1Cl [Compound No. 2]	100	100	100	–	–	–
O=[N+]([O-])c1cc([N+](=O)[O-])c(Nc2ncc(Cl)cc2Br)c(C(F)(F)F)c1 [Compound No. 62]	–	100	100	100	–	pest or weed control at 100 ppm [5]: 100%
O=[N+]([O-])c1ccc(Nc2c(Cl)c(F)nc(F)c2Cl)c(C(F)(F)F)c1 [Reference compound, N-(2,6-difluoro-3,5-dichloro-4-pyridyl)-N-(4-nitro-2-trifluoromethylphenyl)amine, reference compound]	–	–	–	0	40	pest or weed control at 62.5 ppm ([6]; 62.5 ppm): 0%; pest or weed control at 12.5 ppm [1]: 0%; pest or weed control at 25 ppm [1]: 0%
Cc1c(Cl)cnc(Nc2c([N+](=O)[O-])cc(C(F)(F)F)c(Cl)c2[N+](=O)[O-])c1Cl [compound 12]	100	–	–	–	–	Protective value [8]: 75%
O=[N+]([O-])c1cc(C(F)(F)F)cc([N+](=O)[O-])c1Nc1c(Cl)cncc1Cl [compound 15, N-(3,5-dichloro-4-pyridyl)-2,6-dinitro-4-trifluoromethylaniline]	100	100	–	100	100	pest or weed control at 500 ppm [5]: 100%
O=[N+]([O-])c1cc(C(F)(F)F)c(Cl)c([N+](=O)[O-])c1Nc1ncc(C(F)(F)F)cc1Br [compound 21]	100	–	–	–	–	pest or weed control at 250 ppm [6]: 100%; pest or weed control at 500 ppm [5]: 100%
O=[N+]([O-])c1cc(C(F)(F)F)cc([N+](=O)[O-])c1Nc1ncc(C(F)(F)F)cc1Br [compound 22]	100	–	–	–	100	pest or weed control at 250 ppm [6]: 100%; pest or weed control at 500 ppm [5]: 100%
O=[N+]([O-])c1cc(C(F)(F)F)cc([N+](=O)[O-])c1Nc1ncc(Cl)cc1C(F)(F)F [compound 27]	100	–	–	–	100	–
O=[N+]([O-])c1cc(C(F)(F)F)cc([N+](=O)[O-])c1Nc1ncc(Br)cc1C(F)(F)F [compound 28]	100	–	–	–	100	–
O=[N+]([O-])c1cc(C(F)(F)F)c(Cl)c([N+](=O)[O-])c1Nc1ncc(Cl)cc1C(F)(F)F [compound 29]	100	100	–	100	100	pest or weed control at 250 ppm [6]: 100%
O=[N+]([O-])c1cc(C(F)(F)F)c(Cl)c([N+](=O)[O-])c1Nc1nc(Cl)c(Br)cc1C(F)(F)F [compound 31]	–	90	–	–	–	pest or weed control at 500 ppm [5]: 100%
O=[N+]([O-])c1cc(C(F)(F)F)cc([N+](=O)[O-])c1Nc1nc(Cl)c(C(F)(F)F)cc1Br [compound 32]	100	100	–	–	–	pest or weed control at 500 ppm [5]: 100%
O=[N+]([O-])c1cc(C(F)(F)F)c(Cl)c([N+](=O)[O-])c1Nc1ncccc1C(F)(F)F [compound 36]	100	92	–	–	–	pest or weed control at 250 ppm [6]: 96%
O=[N+]([O-])c1cc(C(F)(F)F)cc([N+](=O)[O-])c1Nc1ncccc1C(F)(F)F [compound 37]	100	100	–	–	100	pest or weed control at 250 ppm [6]: 93%
COc1c(C(F)(F)F)cc([N+](=O)[O-])c(Nc2ncc(C(F)(F)F)cc2Cl)c1[N+](=O)[O-] [compound 39]	100	100	–	–	100	–
CCOc1c(C(F)(F)F)cc([N+](=O)[O-])c(Nc2ncc(C(F)(F)F)cc2Cl)c1[N+](=O)[O-] [compound 40, N-(3-chloro-5-trifluoromethyl-2-pyridyl)-2,6-dinitro-3-ethoxy-4-trifluoromethylaniline]	100	100	–	100	100	–
CCCOc1c(C(F)(F)F)cc([N+](=O)[O-])c(Nc2ncc(C(F)(F)F)cc2Cl)c1[N+](=O)[O-] [compound 41]	95	95	–	100	100	–
O=[N+]([O-])c1cc(C(F)(F)F)c(Oc2ccc(O)cc2)c([N+](=O)[O-])c1Nc1ncc(C(F)(F)F)cc1Cl [compound 49]	–	100	–	–	100	pest or weed control at 250 ppm [6]: 100%
O=[N+]([O-])c1cc([N+](=O)[O-])c(Nc2ccc(Cl)cn2)c(C(F)(F)F)c1 [compound 52]	–	–	100	100	–	–
O=[N+]([O-])c1cc([N+](=O)[O-])c(Nc2ccc(Br)cn2)c(C(F)(F)F)c1 [compound 54]	–	90	100	–	–	pest or weed control at 50 ppm [1]: 100%
O=[N+]([O-])c1cc([N+](=O)[O-])c(Nc2ncc(Cl)cc2Cl)c(C(F)(F)F)c1 [compound 60, N-(3,5-dichloro-2-pyridyl)-2,4-dinitro-6-trifluoromethylaniline]	–	100	100	100	–	pest or weed control at 50 ppm [1]: 100%
O=[N+]([O-])c1cc([N+](=O)[O-])c(Nc2ncc(Br)cc2Br)c(C(F)(F)F)c1 [compound 61]	–	100	100	100	–	pest or weed control at 50 ppm [1]: 100%
O=[N+]([O-])c1cc([N+](=O)[O-])c(Nc2ncc(Br)cc2Cl)c(C(F)(F)F)c1 [compound 63]	–	100	100	100	–	–
O=[N+]([O-])c1cc([N+](=O)[O-])c(Nc2ncc(C(F)(F)F)cc2Cl)c(C(F)(F)F)c1 [compound 65]	–	100	100	100	–	pest or weed control at 50 ppm [1]: 100%
O=[N+]([O-])c1cc([N+](=O)[O-])c(Nc2nc(Cl)ccc2C(F)(F)F)c(C(F)(F)F)c1 [compound 66, N-(2-chloro-5-trifluoromethyl-6-pyridyl)-2,4-dinitro-6-trifluoromethylaniline]	–	–	–	100	–	pest or weed control at 100 ppm [5]: 100%
O=[N+]([O-])c1cc([N+](=O)[O-])c(Nc2ccc(C(F)(F)F)c(Cl)n2)c(C(F)(F)F)c1 [compound 70]	–	–	100	100	–	–
Cc1nc(Nc2c([N+](=O)[O-])cc([N+](=O)[O-])cc2C(F)(F)F)c(Cl)c(C)c1Cl [compound 77, N-(3,5-dichloro-4,6-dimethyl-2-pyridyl)-2,4-dinitro-6-trifluoromethylaniline]	–	–	100	100	–	–
O=[N+]([O-])c1cc([N+](=O)[O-])c(Nc2ncccc2C(F)(F)F)c(C(F)(F)F)c1 [compound 81]	–	–	100	100	–	pest or weed control at 50 ppm [1]: 100%
O=[N+]([O-])c1cc(C(F)(F)F)cc(C(F)(F)F)c1Nc1ncc(C(F)(F)F)cc1Cl [compound 89]	–	–	–	–	100	–
O=[N+]([O-])c1cc(C(F)(F)F)cc(C(F)(F)F)c1Nc1ncc(Cl)cc1Cl [compound 90]	–	–	–	–	100	–

Reference: patent US4331670A (priority 1979, dated 1982)
